This note sets out measurements from US20190192559A1, “COMBINATION OF PROTEASOME INHIBITORS AND ANTI-CD30 ANTIBODIES” (Millennium Pharmaceuticals, Inc., priority 2016, published 2019).

Format in all cases: in vivo
For assay [1], the system named is SR-786 tumor cells (CD30+ human large T cell lymphoma cell line). Description: SR-786 subcutaneous xenograft tumor efficacy model in CB17 SCID mice. Conditions: for Average tumor volume day 21: in mm³ (unit assumed). The procedure: SR-786 (6.0×10^6) tumor cells in RPMI-1640 media were aseptically injected into the subcutaneous space in the right dorsal flank of CB17 SCID female mice (Charles River Lab) using a 26 G ⅝ needle. SR-786 is a CD30+ human large T cell lymphoma cell line and was obtained from DSMZ (Braunschweig, Germany).
(§1) Brentuximab vedotin (SGN-35), one vial (Seattle Genetics, 50 mg) was reconstituted in 50 ml 0.9% saline to give a stock solution of 1 mg/ml. The stock solution was then diluted again in 0.9% saline to reach the desired concentration and administered by intraperitoneal injection (IP) on q4D schedule for 21 days (SR-786), 14 days (Karpas-299) or 24 days (SUDHL-2) at 0.2 mg/kg, 0.4 mg/kg and 0.8 mg/kg.
(§2) The compound of formula (IIIa) was formulated in either 5% hydroxypropyl-beta-cyclodextrin (for SR-786 and Karpas-299 studies) or in 20% hydroxypropyl-beta-cyclodextrin for SUDHL-2 study. The amounts listed below in Tables 1a-3b are calculated based on the compound of formula (IV). The drug was administered by IV injection (1 cc syringe, 20-22 gauge) on BIW schedule at either 2 mg/kg or 8 mg/kg for 21 days (SR-786), 14 days (Karpas-299), or 24 days (SUDHL-2).
(§3) Tumors were measured twice weekly using a vernier caliper. Tumor volumes were calculated using standard procedures (0.5×(length×width^2)). When the tumors reached a volume of approximately 200 mm^3 for SR-786, 150 mm^3 for Karpas-299 and SUDHL-2, mice were randomized into 7-8 groups as described in the tables below, and injected with vehicle, compound of formula (IV) or SGN-35 or the combination of compound of formula (IV) with SGN-35, at various doses as described below in Tables 1a, 2a and 3a. Tumor size and body weight were measured approximately twice a week for the duration of the study. Mice were euthanized when their tumor volume reached 10% of their body weight, or when the average tumor volume of a treatment or control group reached approximately 2000 mm^3. Tumor growth continued to be monitored after the dosing period in this study. Tumor volume on study day 21 for all groups is shown in table 1a for SR-786 study; on study day 14 for all groups for Karpas-299 study in table 2a and on study day 24 for all groups for SUDHL-2 study in table 3a. Average tumor volume is reported as a function of time for all groups in FIG. 1 (SR-786), FIG. 2 (Karpas-299) and FIG. 3 (SUDHL-2). Tumor volumes were reported till the end of the study to capture re-growth.
(§4) The synergy analysis is based on the tumor volume data from day 0 to 21 for SR-786, days 0 to 14 for Karpas-299 and days 0 to 24 for SUDHL-2 and presented in table 1b, 2b and 3b. Volume measurements below 25 cubic mm are excluded from the analysis because very low volumes cannot be measured accurately. The remaining measurements are log transformed and fit to a simple linear model with the measurement day as a covariate. The data are fit separately for the different animals to yield an estimated tumor growth rate for each animal in each treatment group. Based on the growth rates, the synergy score for the combination of agents A and B is defined as
(§5) 100*(mean(μAB)−mean(μA)−mean(μB)+mean(μctl))/mean(μctl):
(§6) where μAB, μA, μB, and μctl are the mean tumor growth rates for animals in the combination group, the A group, the B group, and the control group, respectively. The standard error of the synergy score is computed based on the variation in the growth rates among the animals. […] If the P-value is above 0.05, then the combination is considered to be additive. If the P-value is below 0.05, and the synergy score is less than zero, then the combination is considered to be synergistic. […] Otherwise, the combination is classified as antagonistic.

Assay [2] relates to SUDHL-2 tumor cells (CD30+ human large cell lymphoma cell line). Description: SUDHL-2 subcutaneous xenograft tumor efficacy model in CB17-SCID mice. Conditions: for Average tumor volume day 24: in mm³ (unit assumed). How it is done:
SUDHL-2 (2×10^6) tumor cells in RPMI-1640 media were aseptically injected into the subcutaneous space in the right dorsal flank of CB17-SCID female mice (Shanghai SLAC Laboratory Animal Co., LTD). SUDHL-2 is a CD30+ human large cell lymphoma cell line and was obtained from ATCC (Manassas, Va.).
as §1, §2, §3, §4, §5, §6

For assay [3], the system named is Karpas-299 tumor cells (CD30+ human large T cell lymphoma cell line). Description: Karpas-299 subcutaneous xenograft tumor efficacy model in CB17 SCID mice. The following applies: for Average tumor volume day 14: in mm³ (unit assumed). How it is done: Karpas-299 (0.5×10^6) tumor cells in RPMI-1640 media were aseptically injected into the subcutaneous space in the right dorsal flank of CB17 SCID female mice (Charles Rive Lab) using a 26 G ⅝ needle. Karpas-299 is a CD30+ human large T cell lymphoma cell line and was obtained from DSMZ (Braunschweig, Germany).
as §1, §2, §3, §4, §5, §6

[4] abbreviates: compound of formula (IV) 2 mg/kg BIW IV.
[5] abbreviates: compound of formula (IV) 2 mg/kg IV.
[6] abbreviates: compound of formula (IV) 8 mg/kg BIW IV.
Setting [7] is: compound of formula (IV) 8 mg/kg IV.
Setting [8] is: SGN-35 0.2 mg/kg IP, compared to the control vehicle group.
Where [9] appears, read: SGN-35 0.4 mg/kg IP, compared to the control vehicle group.
Setting [10] is: SGN-35 0.8 mg/kg IP, compared to the control vehicle group.

Turning to `CC(C)C[C@H](NC(=O)CNC(=O)c1cc(Cl)ccc1Cl)B(O)O` [compound of formula (IV), [(1R)-1-({[(2,5-dichlorobenzoyl)amino]acetyl}amino)-3-methylbutyl]boronic acid], the “Average tumor volume day 21” value in assay [1] (setting [4]) came to 1221.5; in assay [1] (setting [6]), 500.6. Besides, the tumor growth inhibition in assay [1] (setting [5]) is on record as 10%; in assay [1] (setting [7]), 63%; in assay [2] (setting [5]) it was 6%; in assay [2] (setting [7]) it was 26%; in assay [3] (setting [5]) it was −16%; in assay [3] (setting [7]), −43%. Moreover, the “Average tumor volume day 24” value in assay [2] (setting [4]) was 1449.3; in assay [2] (setting [6]) it was 1129.5. Moreover, the “day on which group was sacrificed” value in assay [2] (two compound of formula (IV) treated groups (Group 2 and 3; 2 mg/kg and 8 mg/kg)) was 27 days. Besides, the results for the “Average tumor volume day 14” value in assay [3] (setting [4]) and in assay [3] (setting [6]) were 1600 and 1971.5, respectively. Besides, the “day on which group was sacrificed due to high tumor burden” value in assay [3] (compound of formula (IV) single agent groups (2 mg/kg and 8 mg/kg)) was 14 days.

Turning to SGN-35, the tumor growth inhibition was determined as 3% in assay [1] (SGN-35 0.2 mg/kg IP); 70% in assay [1] (SGN-35 0.4 mg/kg IP); 100% in assay [1] (SGN-35 0.8 mg/kg IP); 12% in assay [2] (setting [8]); 50% in assay [2] (setting [9]); 82% in assay [2] (setting [10]). The tumor growth inhibition in assay [3] (setting [8]) is recorded as 52%; in assay [3] (setting [9]) it was 100%; in assay [3] (setting [10]), 100%. In addition, the “Average tumor volume day 21” value was determined as 1330 in assay [1] (SGN-35 0.2 mg/kg Q4D IP), 409.9 in assay [1] (SGN-35 0.4 mg/kg Q4D IP) and 0 in assay [1] (SGN-35 0.8 mg/kg Q4D IP). Besides, the “tumors found in mice on day 76” value in assay [1] (SGN-35 0.8 mg/kg single agent) is reported as “No tumors were found in any mice”. Moreover, the “mice tumor free on day 21 post treatment” value in assay [1] (SGN-35 0.8 mg/kg single agent (Group 6)) is on record as 7/7. Besides, the “day on which group was sacrificed” value worked out at 27 days in assay [2] (SGN-35 0.2 mg/kg (Group 4)), 45 days in assay [2] (SGN-35 0.4 mg/kg (Group 5)), 59 days in assay [2] (SGN-35 0.8 mg/kg (Group 6)) and 25 days in assay [3] (SGN-35 0.2 mg/kg single agent). Also, the “Average tumor volume day 24” value in assay [2] (SGN-35 0.2 mg/kg Q4D IP) is listed as 1352.3; in assay [2] (SGN-35 0.4 mg/kg Q4D IP) it was 774.2; in assay [2] (SGN-35 0.8 mg/kg Q4D IP), 274.9. The figures for the “Average tumor volume day 14” value in assay [3] (SGN-35 0.2 mg/kg Q4D IP), in assay [3] (SGN-35 0.4 mg/kg Q4D IP) and in assay [3] (SGN-35 0.8 mg/kg Q4D IP) were 647.4, 0 and 0, respectively. In addition, the “mice tumor free at day 14” value in assay [3] (SGN-35 0.4 mg/kg single agent) and in assay [3] (SGN-35 0.8 mg/kg single agent) was “All the mice” each time.
